Results as given in patent US11731965B2, “Tetrahydroprotoberberine compound, preparation method therefor and uses thereof, and pharmaceutical composition” (SHANGHAI INSTITUTE OF MATERIA MEDICA, CHINESE ACADEMY OF …, priority 2017, dated 2023).
Where a name gives a salt, the structure may show the parent alone.

Tests used:
[1] = target: T1, human recombinant 5-HT1A receptor (Homo sapiens, UniProt P08908); assay: 5-HT1A agonistic activity test (LANCE cAMP, inhibition of cAMP production in HEK293 cells); assay type: cell-based; settings: HEK293 cells expressing human recombinant 5-HT1A receptor; test concentration 0.1 nM to 10000 nM; read-out: 5-HT1A Agonistic Activity (EC50, nmol/L)
T1 construct: expressed in transfected cells; host or cells: HEK293
T1 sequence (P08908 1-422): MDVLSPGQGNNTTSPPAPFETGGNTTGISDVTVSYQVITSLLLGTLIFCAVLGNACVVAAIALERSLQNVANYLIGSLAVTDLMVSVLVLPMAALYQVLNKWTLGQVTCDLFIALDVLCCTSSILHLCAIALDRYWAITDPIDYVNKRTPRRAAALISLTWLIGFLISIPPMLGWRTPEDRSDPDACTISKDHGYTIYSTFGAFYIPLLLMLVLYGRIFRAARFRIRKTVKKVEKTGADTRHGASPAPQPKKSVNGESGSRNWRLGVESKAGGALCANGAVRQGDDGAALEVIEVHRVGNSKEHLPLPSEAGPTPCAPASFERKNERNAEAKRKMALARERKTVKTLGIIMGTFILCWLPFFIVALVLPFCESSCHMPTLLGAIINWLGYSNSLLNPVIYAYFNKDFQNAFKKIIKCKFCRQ
Protocol: • 3) 5-HT1A agonistic activity test
LANCE™ cAMP 384 Kit (PerkinElmer, USA) was used to test the agonistic effect of the compound on 5-HT1A receptor using the HEK293 cells expressing human recombinant 5-HT1A receptor. The 5-HT1A agonistic effect of the compound was evaluated by testing the inhibitory effect of the compound on cAMP production in HEK293 cells. The cAMP concentration test was performed according to the method described in the kit instructions. The test concentration of the compound was 0.1 nM to 10000 nM. 8-OH-DPAT was used as a positive control. The EC50 was calculated by Excelfit software.

[2] = tested on: PCP-induced high spontaneous activity in mice; assay: PCP-induced high spontaneous activity test in mice; assay type: in vivo, Male ICR mice; settings: dose by gavage that significantly reduces PCP (7 mg/kg ip) induced high spontaneous activity of mice vs model group
Protocol: PCP (phencylidine) was dissolved in physiological saline to prepare a 7 mg/kg solution. The test compound was formulated with a 0.5% CMC-Na solution to a solution with suitable concentration, ready-to-use. Male ICR mice were 18-22 g. Mice were randomly divided into a solvent control group, a model control group, a positive control group, and each test drug group during the test. There were 8 mice in each group. Mice in each group were given each test drug by gavage. 45 minutes after the test drug was administered, mice were injected with a PCP (7 mg/kg) solution intraperitoneally. The spontaneous, open field video analysis system was used to record the mouse movement trajectory within 45 min after administration of test drug or saline, and then the mouse movement trajectory within 75 min after PCP administration. Spontaneous, open field video analysis system was used to analyze the mouse's movement trajectory, and the total distance of the movement of the mice in each group was counted. The result was expressed as mean±SD. Results were analyzed by one-way analysis of variance.

[3] = target: T2, human recombinant D1 receptor (Homo sapiens, UniProt P21728); assay: D1 antagonistic activity test (LANCE cAMP, antagonism of dopamine-induced cAMP production in HEK293 cells); assay type: cell-based; settings: HEK293 cells expressing human recombinant D1 receptor; test concentration 0.1 nM to 10000 nM; read-out: D1 Antagonistic Activity (IC50, nmol/L)
T2 construct: expressed in transfected cells; host or cells: HEK293
Protocol: • 1) D1 antagonistic activity test
The D1 antagonism of the compound was evaluated by testing the antagonistic action of the compounds against dopamine on the induction of cAMP production in HEK293 cells. The cAMP concentration test was performed according to the method described in the kit instructions. The test concentration of the compound was 0.1 nM to 10000 nM. SCH23390 was used as a positive control. The IC50 was calculated by Excelfit software.

[4] = target: T3, human recombinant D2 receptor (Homo sapiens, UniProt P14416); assay: D2 antagonistic activity test (LANCE cAMP, antagonism of dopamine inhibition of cAMP production in HEK293 cells); assay type: cell-based; settings: HEK293 cells expressing human recombinant D2 receptor; test concentration 0.1 nM to 10000 nM; read-out: D2 Antagonistic Activity (IC50, nmol/L)
T3 construct: expressed in transfected cells; host or cells: HEK293
Protocol: LANCE™ cAMP 384 Kit (PerkinElmer, USA) was used to test the antagonism of the compound against the D1 receptor using the HEK293 cells expressing human recombinant D1 receptor. The D1 antagonism of the compound was evaluated by testing the antagonistic action of the compounds against dopamine on the induction of cAMP production in HEK293 cells. The cAMP concentration test was performed according to the method described in the kit instructions. The test concentration of the compound was 0.1 nM to 10000 nM. SCH23390 was used as a positive control. The IC50 was calculated by Excelfit software. The test results of some compounds were shown in Table 1. • 2) D2 antagonistic activity test LANCE™ cAMP 384 Kit (PerkinElmer, USA) was used to test the antagonism of the compound against the D2 receptor using the HEK293 cells expressing human recombinant D2 receptor. The D2 antagonism of the compound was evaluated by testing the antagonistic action of the compounds against dopamine on the inhibition of cAMP production in HEK293 cells. The cAMP concentration test was performed according to the method described in the kit instructions. The test concentration of the compound was 0.1 nM to 10000 nM. Risperidone was used as a positive control. The IC50 was calculated by Excelfit software. The test results of some compounds were shown in Table 1 (ND means the test was not performed).

T3 sequence (P14416 whole entry): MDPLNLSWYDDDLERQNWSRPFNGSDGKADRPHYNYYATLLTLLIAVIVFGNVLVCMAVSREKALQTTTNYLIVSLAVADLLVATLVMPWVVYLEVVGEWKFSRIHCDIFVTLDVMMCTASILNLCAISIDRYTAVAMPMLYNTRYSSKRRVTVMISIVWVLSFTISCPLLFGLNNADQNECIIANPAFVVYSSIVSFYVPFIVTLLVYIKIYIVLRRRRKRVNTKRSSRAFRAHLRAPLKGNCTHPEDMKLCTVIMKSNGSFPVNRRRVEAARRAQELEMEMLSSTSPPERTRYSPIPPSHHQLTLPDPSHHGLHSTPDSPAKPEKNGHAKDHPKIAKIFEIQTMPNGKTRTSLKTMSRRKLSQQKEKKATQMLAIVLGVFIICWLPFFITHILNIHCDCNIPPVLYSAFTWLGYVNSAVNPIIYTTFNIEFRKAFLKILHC
T2 sequence (P21728 whole entry): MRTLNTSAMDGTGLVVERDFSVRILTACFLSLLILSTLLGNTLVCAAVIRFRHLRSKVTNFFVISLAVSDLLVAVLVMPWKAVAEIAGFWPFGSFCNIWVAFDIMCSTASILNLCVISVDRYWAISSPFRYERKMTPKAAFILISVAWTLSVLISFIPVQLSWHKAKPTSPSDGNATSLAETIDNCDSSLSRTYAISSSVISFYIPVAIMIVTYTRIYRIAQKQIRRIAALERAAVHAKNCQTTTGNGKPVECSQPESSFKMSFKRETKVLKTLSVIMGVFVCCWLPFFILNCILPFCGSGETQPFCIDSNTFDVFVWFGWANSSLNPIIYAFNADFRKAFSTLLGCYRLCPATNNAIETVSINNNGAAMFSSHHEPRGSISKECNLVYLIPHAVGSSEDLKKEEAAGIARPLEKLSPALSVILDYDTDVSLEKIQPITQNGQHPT

SMILES | EC50 [1] | Effective Dose [2] | IC50 [3] | IC50 [4]
COc1cc2c(cc1OC)[C@@H]1Cc3ccc(OC)c(C(C)=O)c3CN1CC2 [Example 21, (S)-2,3,10-trimethoxy-9-acetyl-6,8,13,13a-tetrahydro-5H-dibenzo [a,g] quinolizine] | 238 nmol/L | 20 mg/kg | 1500 nmol/L | –
COc1cc2c(cc1OC)[C@@H]1Cc3ccc(C#N)c(OC)c3CN1CC2 [Example 27, (S)-2,3,9-trimethoxy-10-cyano-6,8,13,13a-tetrahydro-5H-dibenzo[a,g] quinolizine] | 1200 nmol/L | – | 311 nmol/L | 1000 nmol/L
COc1cc2c(cc1C(N)=O)[C@@H]1Cc3ccc(C(N)=O)c(OC)c3CN1CC2 [Example 38, (S)-2,10-dicarbamoyl-3,9-dimethoxy-6,8,13,13a-tetrahydro-5H-dibenzo[a,g] quinolizine] | 4580 nmol/L | – | 3400 nmol/L | 620 nmol/L
COc1ccc2c(c1OC)CN1CCc3cc(C#N)c(C#N)cc3C1C2 (stereo not drawn) [Example 35, 2,3-dicyano-9,10-dimethoxy-6,8,13,13a-tetrahydro-5H-dibenzo[a,g] quinolizine] | 5900 nmol/L | – | – | –
COc1cc2c(cc1OC)[C@@H]1Cc3ccc(OC)c(OC4CC4)c3CN1CC2 [Example 57, (S)-2,3,10-trimethoxy-9-cyclopropoxy-6,8,13,13a-tetrahydro-5H-dibenzo[a,g] quinolizine hydrochloride] | 110 nmol/L | 20 mg/kg | – | –
COc1cc2c(cc1C(N)=O)[C@@H]1Cc3ccc(OC)c(OC)c3CN1CC2 [Example 5, (S)-2-carbamoyl-3,9,10-trimethoxy-6,8,13,13a-tetrahydro-5H-dibenzo [a,g] quinolizine] | 450 nmol/L | 10 mg/kg | 170 nmol/L | 35 nmol/L
COc1cc2c(cc1OC)[C@@H]1Cc3ccc(OC)c(OCCO)c3CN1CC2 [Example 56, (S)-2,3,10-trimethoxy-9-hydroxyethoxy-6.8,13,13a-tetrahydro-5H-dibenzo[a,g] quinolizine] | 150 nmol/L | 20 mg/kg | 1050 nmol/L | 2800 nmol/L
COc1cc2c(cc1C#N)[C@@H]1Cc3ccc(C#N)c(OC)c3CN1CC2 [Example 37, (S)-2,10-dicyano-3,9-dimethoxy-6,8,13,13a-tetrahydro-5H-dibenzo [a,g] quinolizine] | 3030 nmol/L | – | 211 nmol/L | 19 nmol/L
C=Cc1cc2c(cc1OC)CCN1Cc3c(ccc(OC)c3OC)C[C@@H]21 [Example 17, (S)-2-vinyl-3,9,10-trimethoxy-6,8,13,13a-tetrahydro-5H-dibenzo [a,g] quinolizine] | – | 20 mg/kg | 240 nmol/L | 150 nmol/L
COc1cc2c(cc1OC)[C@@H]1Cc3ccc(OC)c(CO)c3CN1CC2 [Example 25, (S)-2,3,10-trimethoxy-9-hydroxymethyl-6,8,13,13a-tetrahydro-5H-dibenzo[a,g] quinolizine] | – | 20 mg/kg | 1700 nmol/L | 2300 nmol/L
COc1cc2c(cc1CNC(C)=O)[C@@H]1Cc3ccc(OC)c(OC)c3CN1CC2 [Example 11, (S)-2-acetaminomethyl-3,9,10-trimethoxy-6,8,13,13a-tetrahydro-5H-dibenzo[a,g] quinolizine] | 1700 nmol/L | 10 mg/kg | 500 nmol/L | 750 nmol/L
COc1cc2c(cc1C(C)=O)[C@@H]1Cc3ccc(OC)c(OC)c3CN1CC2 [Example 12, (S)-2-acetyl-3,9,10-trimethoxy-6,8,13,13a-tetrahydro-5H-dibenzo [a,g] quinolizine] | 2300 nmol/L | – | 240 nmol/L | 500 nmol/L
COc1cc2c(cc1OC1CC1)[C@@H]1Cc3ccc(OC)c(OC)c3CN1CC2 [Example 53, (S)-2-cyclopropoxy-3,9,10-trimethoxy-6,8,13,13a-tetrahydro-5H-dibenzo[a,g] quinolizine hydrochloride] | – | 20 mg/kg | 960 nmol/L | 1300 nmol/L
COc1cc2c(cc1CCO)[C@@H]1Cc3ccc(OC)c(OC)c3CN1CC2 [Example 18, (S)-2-hydroxyethyl-3,9,10-trimethoxy-6,8,13,13a-tetrahydro-5H-dibenzo[a,g] quinolizine] | – | 20 mg/kg | 390 nmol/L | 610 nmol/L
COc1cc2c(cc1OC)[C@@H]1Cc3ccc(OC)c(CNC(C)=O)c3CN1CC2 [Example 23, (S)-2,3,10-trimethoxy-9-acetylaminomethyl-6,8,13,13a-tetrahydro-5H-dibenzo[a,g] quinolizine] | 1900 nmol/L | – | – | –
COc1cc2c(cc1CO)[C@@H]1Cc3ccc(OC)c(OC)c3CN1CC2 [Example 7, (S)-2-hydroxymethyl-3,9,10-trimethoxy-6,8,13,13a-tetrahydro-5H-dibenzo[a,g] quinolizine] | – | 10 mg/kg | 61 nmol/L | 770 nmol/L
COc1cc2c(cc1N)[C@@H]1Cc3ccc(OC)c(OC)c3CN1CC2 [Example 13, (S)-2-amino-3,9,10-trimethoxy-6,8,13,13a-tetrahydro-5H-dibenzo [a,g] quinolizine hydrochloride] | – | 10 mg/kg | 140 nmol/L | 280 nmol/L
COc1ccc2c(c1OC)CN1CCc3cc4c(cc3C1C2)OCC(=O)N4 (stereo not drawn) [Example 47, 10,11-Dimethoxy-4,6,7,9,14,14a-Hexahydroisoquinolino[3,2-a][1,4] oxazino[3,2-g]isoquinoline-3(2H)-one] | – | 10 mg/kg | 19.9 nmol/L | 146 nmol/L
COc1cc2c(cc1NC(C)=O)[C@@H]1Cc3ccc(OC)c(OC)c3CN1CC2 [Example 14, (S)-2-acetamido-3,9,10-trimethoxy-6,8,13,13a4tetrahydro-5H-dibenzo[a,g] quinolizine hydrochloride] | 514 nmol/L | 10 mg/kg | – | –
COc1ccc2c(c1OC)CN1CCc3cc(OC)c4[nH]c(=O)[nH]c4c3[C@@H]1C2 [Example 40, (S)-4,10,11-trimethoxy-3,6,7,9,14,14a-hexahydroimidazo[4,5-h] isoquinolino[3,2-a]isoquinoline-2(1H)-one] | – | 20 mg/kg | 4 nmol/L | 27 nmol/L
